Tests used:
[1] = test system: transplanted tumor of human glioma cell U251; test: U251 transplanted tumor in nude mice; details: for Tumor Volume (mm3) (d 1): d1
Description: (§1) U251 cells in a logarithmic growth phase were taken and subjected to a trypan blue exclusion experiment showing that the cell viability was more than 95%, then the cells were subjected to trypsinization, centrifugation, and supernatant removal. Then cell concentration was adjusted to 1×10^7/ml with matrigel, then each nude mouse was inoculated subcutaneously with 0.2 ml of cells at its right armpit and recorded as the first day of inoculation. When the tumor grows to be greater than or equal to 100 mm^3, the mice were randomly divided into 11 groups with 6 mice in each group: a model group, a cyclophosphamide group, isovaleryl spiramycin I groups with doses of 25, 50 and 100 mg/kg, isovaleryl spiramycin II groups with doses of 25, 50 and 100 mg/kg, and isovaleryl spiramycin III groups with doses of 25, 50 and 100 mg/kg. Each group was continuously administered intragastrically for 30 days with a dose of 20 ml/kg. The mice were sacrificed the next day after drug withdrawal and the indicators were tested. The long diameter and short diameter of the tumor, and the body weight of each mouse were recorded every 3 days from drug administration to nude mouse sacrifice.
(§2) The body weight of the nude mice and the long diameter (a) and short diameter (b) of the transplanted tumor were measured every 3 days, and the tumor volume (v), relative tumor volume (RTV) and relative tumor proliferation rate (T/C) are calculated respectively according to the following formulas, wherein V=a×b^2/2; RTV=V/V0 (V0 is the tumor volume before administration, V is the tumor volume before sacrifice), and T/C (%)=treatment group RTV/model control group RTV×100%.
(§3) Each mouse was weighed and sacrificed. After the tumor was completely stripped off from the body of the mouse, the non-tumor tissues such as blood stains and fat were removed to weigh the tumor and calculate the tumor growth inhibition rate. The average tumor weight of each group of mice is used as an indicator of efficacy. Tumor growth inhibition rate (%)=(1−the average tumor weight of the treatment group/the average tumor weight of the model group)×100%.

[2] = test system: transplanted tumor of HL60 cells; test: HL-60 transplanted tumor in nude mice; details: for Tumor Volume (mm3) (d30): d 30
Description: as §1, with “HL-60” for “U251”, “group:” for “group: a model group, a cyclophosphamide group,”, “the” for “the body”
as §2, §3

[3] = test system: transplanted tumor of human breast cancer cell MDA-MB-231; test: MDA-MB-231 transplanted tumor in nude mice
Description: as §1, with “Then” for “U251 cells in a logarithmic growth phase were taken and subjected to a trypan blue exclusion experiment showing that the cell viability was more than 95%, then the cells were subjected to trypsinization, centrifugation, and supernatant removal. Then”
as §2, §3

[4] = U251, high dose (100 mg/kg in method) i.g. 30 days
[5] = U251, low dose (25 mg/kg in method) i.g. 30 days
[6] = U251, medium dose (50 mg/kg in method) i.g. 30 days
[7] = HL-60, high dose (100 mg/kg in method) i.g. 30 days
[8] = HL-60, low dose (25 mg/kg in method) i.g. 30 days
[9] = HL-60, medium dose (50 mg/kg in method) i.g. 30 days
[10] = MDA-MB-231, 25 mg/kg (low dose) i.g. 30 days
[11] = MDA-MB-231, 50 mg/kg (medium dose) i.g. 30 days
[12] = MDA-MB-231, 100 mg/kg (high dose) i.g. 30 days

mouse weight compared with the model group ([1]; mouse, in vivo): no significant changes | mouse weight compared with the model group ([2]; mouse, in vivo): no significant changes | mouse weight compared with the model group ([3]; mouse, in vivo): no significant changes
SMILES: CO[C@@H]1[C@@H](O[C@@H]2O[C@H](C)[C@@H](O[C@H]3C[C@@](C)(O)[C@@H](OC(=O)CC(C)C)[C@H](C)O3)[C@H](N(C)C)[C@H]2O)[C@@H](CC=O)C[C@@H](C)[C@@H](O[C@H]2CC[C@H](N(C)C)[C@@H](C)O2)/C=C/C=C/C[C@@H](C)OC(=O)C[C@H]1O [Isovaleryl spiramycin I, isovaleryl spiramycin I]
Relative Tumor Proliferation Rate (T/C) [1, 4]: 25.80% | tumor growth inhibition rate [1, 4]: 69.21% | Relative Tumor Proliferation Rate (T/C) [1, 5]: 76.40% | tumor growth inhibition rate [1, 5]: 30.94% | tumor volume and relative tumor volume compared with the model group ([1]; U251, low, medium and high doses, P<0.05): significantly lower | Relative Tumor Proliferation Rate (T/C) [1, 6]: 44.54% | tumor growth inhibition rate [1, 6]: 44.53% | Inhibition Rate (%) ([1]; U251 nude mice, 25 mg/kg): 30.94% | Relative Tumor Proliferation Rate (T/C) ([1]; U251 nude mice, 25 mg/kg): 76.40% | Relative Tumor Volume (RTV) ([1]; U251 nude mice, 25 mg/kg): 12.69 ± 1.08 | Tumor Weight ([1]; U251 nude mice, 25 mg/kg): 0.96 ± 0.08 g | Tumor Volume (mm3) (d 1) ([1]; U251 nude mice, 25 mg/kg): 122.81 ± 10.35 mm3 | Tumor Volume (mm3) (d30) ([1]; U251 nude mice, 25 mg/kg): 1550.33 ± 72.99 mm3 | Inhibition Rate (%) ([1]; U251 nude mice, 50 mg/kg): 44.53% | Relative Tumor Proliferation Rate (T/C) ([1]; U251 nude mice, 50 mg/kg): 44.54% | Relative Tumor Volume (RTV) ([1]; U251 nude mice, 50 mg/kg): 10.67 ± 1.09 | Tumor Weight ([1]; U251 nude mice, 50 mg/kg): 0.77 ± 0.09 g | Tumor Volume (mm3) (d 1) ([1]; U251 nude mice, 50 mg/kg): 124.39 ± 10.31 mm3 | Tumor Volume (mm3) (d30) ([1]; U251 nude mice, 50 mg/kg): 930.42 ± 204.72 mm3 | Inhibition Rate (%) ([1]; U251 nude mice, 100 mg/kg): 69.21% | Relative Tumor Proliferation Rate (T/C) ([1]; U251 nude mice, 100 mg/kg): 25.80% | Relative Tumor Volume (RTV) ([1]; U251 nude mice, 100 mg/kg): 10.05 ± 0.71 | Tumor Weight ([1]; U251 nude mice, 100 mg/kg): 0.43 ± 0.01 g | Tumor Volume (mm3) (d 1) ([1]; U251 nude mice, 100 mg/kg): 124.88 ± 6.57 mm3 | Tumor Volume (mm3) (d30) ([1]; U251 nude mice, 100 mg/kg): 537.02 ± 93.66 mm3 | Body Weight (g) (d1) ([1]; mouse, in vivo, 25 mg/kg): 21.03 ± 0.55 g | Body Weight (g) (d30) ([1]; mouse, in vivo, 25 mg/kg): 21.09 ± 0.53 g | Body Weight (g) (d1) ([1]; mouse, in vivo, 50 mg/kg): 20.78 ± 0.66 g | Body Weight (g) (d30) ([1]; mouse, in vivo, 50 mg/kg): 21.08 ± 0.54 g | Body Weight (g) (d1) ([1]; mouse, in vivo, 100 mg/kg): 21.10 ± 0.35 g | Body Weight (g) (d30) ([1]; mouse, in vivo, 100 mg/kg): 20.86 ± 0.66 g | Relative Tumor Proliferation Rate (T/C) [2, 7]: 32.70% | tumor growth inhibition rate [2, 7]: 64.19% | Relative Tumor Proliferation Rate (T/C) [2, 8]: 84.96% | tumor growth inhibition rate [2, 8]: 11.57% | tumor volume and relative tumor volume compared with the model group ([2]; HL-60, low, medium and high doses, P<0.05): significantly lower | Relative Tumor Proliferation Rate (T/C) [2, 9]: 59.54% | tumor growth inhibition rate [2, 9]: 34.78% | Inhibition Rate (%) ([2]; dose 25 mg/kg): 11.57% | Relative Tumor Proliferation Rate (T/C) ([2]; dose 25 mg/kg): 84.96% | Relative Tumor Volume (RTV) ([2]; dose 25 mg/kg): 9.56 ± 2.41 | Tumor Weight ([2]; dose 25 mg/kg): 2.00 ± 0.34 g | Tumor Volume (mm3) (d 1) ([2]; dose 25 mg/kg): 182.56 ± 25.80 mm3 | Tumor Volume (mm3) (d30) ([2]; dose 25 mg/kg): 1702.01 ± 305.75 mm3 | Inhibition Rate (%) ([2]; dose 50 mg/kg): 34.78% | Relative Tumor Proliferation Rate (T/C) ([2]; dose 50 mg/kg): 59.54% | Relative Tumor Volume (RTV) ([2]; dose 50 mg/kg): 6.70 ± 2.58 | Tumor Weight ([2]; dose 50 mg/kg): 1.48 ± 0.38 g | Tumor Volume (mm3) (d 1) ([2]; dose 50 mg/kg): 189.04 ± 24.48 mm3 | Tumor Volume (mm3) (d30) ([2]; dose 50 mg/kg): 1230.70 ± 332.94 mm3 | Inhibition Rate (%) ([2]; dose 100 mg/kg): 64.19% | Relative Tumor Proliferation Rate (T/C) ([2]; dose 100 mg/kg): 32.70% | Relative Tumor Volume (RTV) ([2]; dose 100 mg/kg): 3.68 ± 2.51 | Tumor Weight ([2]; dose 100 mg/kg): 0.81 ± 0.42 g | Tumor Volume (mm3) (d 1) ([2]; dose 100 mg/kg): 183.82 ± 20.41 mm3 | Tumor Volume (mm3) (d30) ([2]; dose 100 mg/kg): 657.95 ± 411.53 mm3 | Body Weight (g) (d1) ([2]; mouse, in vivo, 25 mg/kg): 20.75 ± 1.20 g | Body Weight (g) (d30) ([2]; mouse, in vivo, 25 mg/kg): 20.66 ± 1.08 g | Body Weight (g) (d1) ([2]; mouse, in vivo, 50 mg/kg): 20.4 ± 1.60 g | Body Weight (g) (d30) ([2]; mouse, in vivo, 50 mg/kg): 20.35 ± 1.20 g | Body Weight (g) (d1) ([2]; mouse, in vivo, 100 mg/kg): 20.63 ± 1.33 g | Body Weight (g) (d30) ([2]; mouse, in vivo, 100 mg/kg): 20.56 ± 1.77 g | Inhibition Rate (tumor growth inhibition rate) [3, 10]: 22.84% | Relative Tumor Proliferation Rate (T/C) [3, 10]: 69.71% | Relative Tumor Volume (RTV) [3, 10]: 10.89 ± 2.52 | Tumor Volume (d 1) [3, 10]: 111.07 ± 8.47 mm3 | Tumor Volume (d 30) [3, 10]: 1213.38 ± 299.29 mm3 | Tumor Weight [3, 10]: 1.79 ± 0.34 g | Inhibition Rate (tumor growth inhibition rate) [3, 11]: 55.17% | Relative Tumor Proliferation Rate (T/C) [3, 11]: 44.18% | Relative Tumor Volume (RTV) [3, 11]: 6.90 ± 2.43 | Tumor Volume (d 1) [3, 11]: 116.00 ± 8.13 mm3 | Tumor Volume (d 30) [3, 11]: 807.45 ± 319.26 mm3 | Tumor Weight [3, 11]: 1.04 ± 0.44 g | Inhibition Rate (tumor growth inhibition rate) [3, 12]: 69.11% | Relative Tumor Proliferation Rate (T/C) [3, 12]: 27.74% | Relative Tumor Volume (RTV) [3, 12]: 4.33 ± 3.47 | Tumor Volume (d 1) [3, 12]: 111.91 ± 10.26 mm3 | Tumor Volume (d 30) [3, 12]: 458.55 ± 338.74 mm3 | Tumor Weight [3, 12]: 0.72 ± 0.48 g | tumor volume and relative tumor volume compared with the model group ([3]; MDA-MB-231, low, medium and high doses, P<0.05): significantly lower

Source: patent US20200163984A1, “USE OF ISOVALERYL SPIRAMYCIN I, II AND/OR III IN MANUFACTURING MEDICAMENT FOR TREATING AND/OR PREVENTING TUMOR, AND MEDICAMENT” (SHENYANG FUYANG PHARMACEUTICAL TECHNOLOGY CO., LTD., priority 2017, published 2020)
